The record followed here is patent publication US5705491A, “Adenosine deaminase inhibitor” (Nippon Zoki Pharmaceutical Co., Ltd., priority 1992, dated 1998).

Structures are written as SMILES.

Experiment [1] addresses T1, adenosine deaminase of type VII (mucous membrane of intestinal tract of calf) (Bos taurus, UniProt P56658).
T1 construct: from tissue; host or cells: mucous membrane of intestinal tract of calf
T1 sequence (P56658 1-363): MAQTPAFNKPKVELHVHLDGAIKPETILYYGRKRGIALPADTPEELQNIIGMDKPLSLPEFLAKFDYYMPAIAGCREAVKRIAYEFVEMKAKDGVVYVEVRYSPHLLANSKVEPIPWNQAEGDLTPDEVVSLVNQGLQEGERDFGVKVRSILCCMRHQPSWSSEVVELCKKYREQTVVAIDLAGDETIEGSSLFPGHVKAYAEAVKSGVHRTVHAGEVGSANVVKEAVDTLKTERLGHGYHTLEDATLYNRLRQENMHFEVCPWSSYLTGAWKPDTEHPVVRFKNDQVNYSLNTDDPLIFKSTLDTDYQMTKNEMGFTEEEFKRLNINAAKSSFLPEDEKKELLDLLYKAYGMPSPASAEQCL
As to the kind of experiment: Adenosine deaminase inhibiting action. Conditions: 25° C., 0.05M phosphate buffer pH 7.5, adenosine substrate, 5 minutes, Lineweaver-Burk plots. Type of experiment: biochemical. The protocol: 1. Adenosine Deaminase Inhibiting Action
The enzymatic reaction was conducted at 25° C. in a 0.05M phosphate buffer (pH=7.5). Thus, a reaction solution comprising 800 μl of substrate solution (adenosine), 100 μl of a solution to be tested and 100 μl of enzyme solution (adenosine deaminase of type VII; mucous membrane of intestinal tract of calf) was reacted for 5 minutes and the reaction was stopped by adding 100 μl of acetic acid. Then the amount of inosine produced was determined by means of an HPLC to measure the inhibiting activity. The test was conducted for various substrate concentrations and Ki values were measured by Lineweaver-Burk plots.

The subject of experiment [2] is Human peripheral polymorphonuclear leukocyte (PML). As to the kind of experiment: Inhibitory action against activated oxygen (superoxide) generation. The experiment is classed as cell-based. Conditions: FMLP 10^-7 M; for inhibition at 100 µM: 1 × 10^-4 M; for inhibition at 10 µM: 1 × 10^-5 M; for inhibition at 1 µM: 1 × 10^-6 M. On the procedure: 3. Inhibitory Action against Activated Oxygen Generation
Human peripheral polymorphonuclear leukocyte (PML, 2×10^6 cells) prepared in a conventional method, bovine heart cytochrome C type-III (75 nmol), cytocharasin (5 μg) and tested drug were mixed with HEPES-buffered saline solution (final 1 ml) and incubated for 5 minutes at 37° C. N-Formyl-methionyl-leucyl-phenylalanine (FMLP) was added (final 10^-7 M) and incubated for 5 minutes. Immediately after the incubation, the reaction mixture was centrifuged at 4° C., and then the absorbance at 550 nm of the supernatant was measured with a spectrophotometer.
An excess amount of bovine liver superoxide dismutase (SOD) was added to the reaction mixture and the absorbance of the supernatant was also measured in the same manner as above as a blank value.
A portion of adenosine deaminase (ADA) may be removed during the preparation of human peripheral PML. Therefore, the inhibitory action against the generation of superoxide of the tested drug was measured in the same manner as mentioned above, adding 0.02 units of bovine liver ADA with human peripheral PML.
The inhibition against superoxide generation was calculated by the following equation, and examples of the results are given in Table 4. [formula]

The subject of experiment [3] is rats administered with puromycin aminonucleoside (nephritis model). As to the kind of experiment: Therapeutic action to nephritis (puromycin aminonucleoside rats). Type of experiment: in vivo, male rat (SD strain). The note with it: 50 mg/kg oral, five consecutive days. On the procedure:
2. Therapeutic Action to Nephritis.
When puromycin aminonucleoside is administered to rats, symptoms similar to protein-rich urine, hypoproteinemia, hyperlipemia, nephrotic syndrome, etc, result and, therefore, rats which are administered with puromycin aminonucleoside have been used as pathological model animals for nephritis. The chemical name for puromycin aminonucleoside is 3'-amino-3'-deoxy-N,N-dimethyladenosine. A method by Endo, et al. [Sogo Rinsho, vol. 38, no. 5, page 821 (1989)] was somewhat modified and used as a test method here. Thus, a solution of puromycin aminonucleoside was dissolved in a physiological saline liquid and administered just once to a tail vein of a male rat (SD strain) of about 200 g body weight at a dose of 100 mg/kg (the initial of zero-th day).
The compound to be tested was dissolved in a physiological saline liquid and was given orally for five consecutive days from the zero-th day at a dose of 50 mg/kg each. After 24 hours, the accumulated urine was collected and the amount of urine and the amount of protein in the urine was measured. Blood was collected on the tenth day and the total protein in serum, creatinine in serum and urea nitrogen were measured.
Examples of the results are given in Tables 2 and where the control is those animals injected only with the puromycin aminonucleoside: […]

The subject of experiment [4] is ischemic edema of hind paw of mice. As to the kind of experiment: Suppressive action against ischemic edema. Type of experiment: in vivo, ICR-strain male mice. The protocol: 4. Suppressive Action against Ischemic Edema
The right hind paw of ICR-strain male mice (11 weeks of age) were fastened with a rubber band to stop the blood stream for 20 minutes, and then the rubber band was removed to recover the blood stream. The tested drug was administered intravenously before the treatment. Each of the right and left hind paws were weighed and the suppressive action was measured according to the weight difference between the treated and untreated paws.

[5] abbreviates: with ADA (0.02 units bovine liver).

Take `CNc1nc(C)nc2c1ncn2[C@@H]1O[C@H](CO)[C@@H](O)[C@H]1OC` [Compound 27, 2, N^6,2'-O-Trimethyladenosine]: the Ki in experiment [1] was found to be 859 nM. In addition, the inhibition at 100 µM in experiment [2] (setting [5]) was 88%; in experiment [2] (without ADA) it was 79%. Further, the values for the inhibition at 10 µM in experiment [2] (setting [5]) and in experiment [2] (without ADA) were 77% and 22%, respectively. Further, the inhibition at 1 µM in experiment [2] (setting [5]) turned out to be 34%; in experiment [2] (without ADA), 2%. This molecule also had an inhibition at 0.1 µM in experiment [2] (with ADA (0.02 units bovine liver), 1 × 10^-7 M) of 10%. Besides, the inhibition at 1000 µM in experiment [2] (without ADA, 1 × 10^-3 M) came out at 100%. Moreover, the “Serum Creatinine” value in experiment [3] (blood on tenth day) worked out at 0.71 mg/dL. Moreover, in experiment [3] (blood on tenth day), the “Total Protein in Serum” value stood at 7.44 g/dL. In addition, in experiment [3] (blood on tenth day), the “Urea Nitrogen” value is 31.9 mg/dL. Also, the “Amount of Protein in Urine” value in experiment [3] (1st day) came to 0 mg/day; in experiment [3] (2nd day), 29.2 mg/day; in experiment [3] (3rd day) it was 33.8 mg/day; in experiment [3] (4th day), 122.5 mg/day; in experiment [3] (5th day) it was 399.8 mg/day; in experiment [3] (6th day) it was 443.7 mg/day. Also, the “Amount of Protein in Urine” value in experiment [3] (7th day) stood at 558.7 mg/day; in experiment [3] (8th day), 595.6 mg/day; in experiment [3] (9th day), 593.5 mg/day; in experiment [3] (10th day), 528.6 mg/day. In experiment [4] (10 mg/kg intravenous before ischemia, treated paw), the “Paw Weight, Treated” value is listed as 254.4 ± 6.6 mg. The “Inhibition (of ischemic edema)” value in experiment [4] (10 mg/kg intravenous, from weight difference between treated and untreated paws) came to 67.7%.

For orientation: Ki means a dissociation constant, usually derived from enzyme kinetics or from competition with a known ligand. For orientation: inhibition means the relative decrease from the control value, in per cent. A low value points to a weak effect.
